Results as given in ChEMBL document CHEMBL2163248, “Classification of inhibitors of hepatic organic anion transporting polypeptides (OATPs): influence of protein expression on drug-drug interactions” (J Med Chem, 2012).

Legend:
[1] = biological target: T1, OATP1B1 (Homo sapiens, UniProt Q9Y6L6); assay: (§1) Inhibition of human liver OATP1B1 expressed in HEK293 Flp-In cells assessed as reduction in E17-betaG uptake at 20 uM by scintillation counting
T1 sequence (Q9Y6L6 whole entry): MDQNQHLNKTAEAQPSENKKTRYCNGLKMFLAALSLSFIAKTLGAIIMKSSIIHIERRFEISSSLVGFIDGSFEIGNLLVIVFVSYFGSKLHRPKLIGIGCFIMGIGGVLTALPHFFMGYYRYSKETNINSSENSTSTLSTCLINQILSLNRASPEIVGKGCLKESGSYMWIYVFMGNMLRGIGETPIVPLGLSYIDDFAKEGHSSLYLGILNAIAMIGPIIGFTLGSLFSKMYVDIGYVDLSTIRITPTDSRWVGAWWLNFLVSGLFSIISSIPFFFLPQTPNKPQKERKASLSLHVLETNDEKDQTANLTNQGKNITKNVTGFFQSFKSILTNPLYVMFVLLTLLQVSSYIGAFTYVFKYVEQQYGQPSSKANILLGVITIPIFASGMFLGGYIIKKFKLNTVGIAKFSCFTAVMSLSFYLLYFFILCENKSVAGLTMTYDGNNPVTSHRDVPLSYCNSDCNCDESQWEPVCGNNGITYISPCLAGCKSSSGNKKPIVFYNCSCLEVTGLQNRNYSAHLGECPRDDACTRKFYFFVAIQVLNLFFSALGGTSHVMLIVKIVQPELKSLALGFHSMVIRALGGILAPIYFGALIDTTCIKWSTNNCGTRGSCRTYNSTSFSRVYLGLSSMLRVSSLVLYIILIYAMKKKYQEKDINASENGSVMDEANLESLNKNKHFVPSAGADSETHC

[2] = biological target: T2, Solute carrier organic anion transporter family member 1B3 (Homo sapiens, UniProt Q9NPD5); assay: Inhibition of human liver OATP1B3 expressed in HEK293 Flp-In cells assessed as reduction in [3H]E17-betaG uptake at 20 uM incubated for 5 mins by scintillation counting; settings: hek293, 5 min
T2 sequence (Q9NPD5 whole entry): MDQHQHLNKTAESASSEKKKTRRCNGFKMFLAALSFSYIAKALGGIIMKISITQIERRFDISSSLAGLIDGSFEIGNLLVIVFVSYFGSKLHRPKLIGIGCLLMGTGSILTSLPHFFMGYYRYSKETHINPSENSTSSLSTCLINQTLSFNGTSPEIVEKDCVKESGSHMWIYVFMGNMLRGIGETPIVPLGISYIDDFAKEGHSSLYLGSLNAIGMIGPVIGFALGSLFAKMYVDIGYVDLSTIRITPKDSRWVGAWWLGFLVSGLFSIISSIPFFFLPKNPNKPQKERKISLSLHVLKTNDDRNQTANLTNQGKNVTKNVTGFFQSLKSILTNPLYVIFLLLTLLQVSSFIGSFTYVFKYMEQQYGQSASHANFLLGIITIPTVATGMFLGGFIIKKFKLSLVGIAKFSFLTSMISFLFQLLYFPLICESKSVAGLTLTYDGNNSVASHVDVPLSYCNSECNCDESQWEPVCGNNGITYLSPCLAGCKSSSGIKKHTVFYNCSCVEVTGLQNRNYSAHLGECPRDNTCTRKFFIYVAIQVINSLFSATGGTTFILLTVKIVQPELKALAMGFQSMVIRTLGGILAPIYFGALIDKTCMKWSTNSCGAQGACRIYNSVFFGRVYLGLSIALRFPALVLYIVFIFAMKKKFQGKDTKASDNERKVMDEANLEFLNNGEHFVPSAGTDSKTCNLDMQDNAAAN

[3] = biological target: T3, Solute carrier organic anion transporter family member 2B1 (Homo sapiens, UniProt O94956); assay: Inhibition of human liver OATP2B1 expressed in HEK293 Flp-In cells assessed as reduction in [3H]E3S uptake at 20 uM incubated for 5 mins by scintillation counting; settings: hek293, 5 min
T3 sequence (O94956 whole entry): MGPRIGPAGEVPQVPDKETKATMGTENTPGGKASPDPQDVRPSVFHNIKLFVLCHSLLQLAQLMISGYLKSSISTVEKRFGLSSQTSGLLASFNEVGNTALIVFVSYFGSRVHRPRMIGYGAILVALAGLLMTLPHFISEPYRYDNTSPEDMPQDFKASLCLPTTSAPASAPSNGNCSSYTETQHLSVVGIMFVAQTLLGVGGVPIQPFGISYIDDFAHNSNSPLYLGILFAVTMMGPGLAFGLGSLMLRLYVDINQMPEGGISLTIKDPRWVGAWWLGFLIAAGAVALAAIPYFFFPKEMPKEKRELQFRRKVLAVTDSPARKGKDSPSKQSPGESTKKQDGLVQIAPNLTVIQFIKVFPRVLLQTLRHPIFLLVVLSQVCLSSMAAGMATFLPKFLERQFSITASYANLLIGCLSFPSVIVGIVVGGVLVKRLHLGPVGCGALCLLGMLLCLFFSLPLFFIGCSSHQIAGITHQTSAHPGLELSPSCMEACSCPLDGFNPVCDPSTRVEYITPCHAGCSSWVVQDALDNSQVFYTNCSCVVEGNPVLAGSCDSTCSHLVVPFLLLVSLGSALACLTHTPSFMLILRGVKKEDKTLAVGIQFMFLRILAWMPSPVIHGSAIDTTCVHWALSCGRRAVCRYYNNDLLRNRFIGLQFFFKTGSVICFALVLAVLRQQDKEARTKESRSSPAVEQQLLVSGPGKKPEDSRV

[4] = biological target: T4, Solute carrier organic anion transporter family member 1B1 (Homo sapiens, UniProt Q9Y6L6); assay: Inhibition of human liver OATP1B1 expressed in HEK293 Flp-In cells assessed as reduction in E17-betaG uptake by scintillation counting; type: ADME, cell-based
T4 sequence (Q9Y6L6 whole entry): T1 sequence (Q9Y6L6 whole entry)

[5] = biological target: T4, Solute carrier organic anion transporter family member 1B1; assay: as §1; settings: hek293, 20 µM
[6] = biological target: T3, Solute carrier organic anion transporter family member 2B1; assay: Inhibition of human liver OATP2B1 expressed in HEK293 Flp-In cells assessed as reduction in [3H]E3S uptake incubated for 5 mins by scintillation counting; type: ADME, cell-based
[7] = Fraction unbound in plasma; type: ADME, cell-free
[8] = biological target: T5, OATP1B3 (Homo sapiens, UniProt Q9NPD5); assay: Activity at human liver OATP1B3 expressed in HEK293 Flp-In cells; type: ADME, cell-based; settings: HEK293 Flp-In cells expressing OATP1B3
T5 sequence (Q9NPD5 whole entry): T2 sequence (Q9NPD5 whole entry)

[9] = biological target: T2, Solute carrier organic anion transporter family member 1B3; assay: Activity at human liver OATP1B3 expressed in HEK293 Flp-In cells assessed as rate of compound transport per mg of protein; type: ADME, cell-based
[10] = biological target: T2, Solute carrier organic anion transporter family member 1B3; assay: Ratio of Vmax to Km for human liver OATP1B3 expressed in HEK293 Flp-In cells assessed per mg protein; type: ADME, cell-based
[11] = tested on: OATP1B1 versus OATP1B3; assay: Selectivity index, ratio of IC50 for human liver OATP1B1 to IC50 for OATP1B3; settings: read-out: Ratio IC50
[12] = biological target: T2, Solute carrier organic anion transporter family member 1B3; assay: Inhibition of human liver OATP1B3 expressed in HEK293 Flp-In cells assessed as reduction in [3H]E17-betaG uptake incubated for 5 mins by scintillation counting; type: ADME, cell-based
[13] = HEK293 Flp-In cells expressing OATP1B1, probe E17-betaG

Row | Compound | inhibition at 20 µM [1, 13] [%] | INH [2] [%] | INH [3] [%] | further results
1 | C[n+]1ccccc1 | 27.9 | -2.3 | 12.8 | –
2 | C[n+]1ccc(-c2ccccc2)cc1 | 14.2 | 10.8 | 2.4 | –
3 | CCOc1ccc(-c2nc3cc(-c4nc5cc(N6CCN(C)CC6)ccc5[nH]4)ccc3[nH]2)cc1 | – | – | 12.7 | inhibition at 20 µM ([1]; hek293): 48.1%; IC50 [4]: 19 µM
4 | C[n+]1cc2c3c(ccc2c2ccc4cc5c(cc4c21)OCO5)OCO3 | -0.2 | 2.9 | 15 | –
5 | CC(=O)Oc1ccc2c(c1)Oc1cc(OC(C)=O)ccc1C21OC(=O)c2cc(C(=O)O)ccc21 | 70.7 | 71.1 | -24.9 | –
6 | N[C@@H]1C[C@H]1c1ccccc1.N[C@H]1C[C@@H]1c1ccccc1 (relative stereo) [TRANYLCYPROMINE] | – | -9.3 | 15.5 | inhibition at 20 µM ([1]; hek293): -9.5%
7 | Cc1ccc(-c2cc(C(F)(F)F)nn2-c2ccc(S(N)(=O)=O)cc2)cc1 [CELECOXIB] | – | 22.3 | -69 | inhibition at 20 µM ([1]; hek293): -3.3%
8 | COc1ccc2c(c[n+](C)c3c4cc5c(cc4ccc23)OCO5)c1OC [CHELERYTHRINE] | -0.7 | 24.9 | 13.1 | –
9 | CCN(CC)CCCC(C)Nc1ccnc2cc(Cl)ccc12 (configuration not stated) [CHLOROQUINE] | -1.4 | -7.2 | 23.5 | –
10 | CC[C@H]1OC(=O)[C@H](C)[C@@H](O[C@H]2C[C@@](C)(OC)[C@@H](O)[C@H](C)O2)[C@H](C)[C@@H](O[C@@H]2O[C@H](C)C[C@H](N(C)C)[C@H]2O)[C@](C)(OC)C[C@@H](C)C(=O)[C@H](C)[C@@H](O)[C@]1(C)O [CLARITHROMYCIN] | 73.1 | 53.8 | 5.1 | –
11 | COc1cccc2c1C(=O)c1c(O)c3c(c(O)c1C2=O)C[C@@](O)(C(=O)CO)C[C@@H]3O[C@H]1C[C@H](N)[C@H](O)[C@H](C)O1 [DOXORUBICIN] | -5.8 | 26.6 | 49.9 | –
12 | C#Cc1cccc(Nc2ncnc3cc(OCCOC)c(OCCOC)cc23)c1 [ERLOTINIB] | – | 27.5 | 93.7 | INH [5]: 10.6%; IC50 [6]: 0.55 µM; Cp(f) [7]: 400 nM
13 | C[C@]12CC[C@@H]3c4ccc(O)cc4CC[C@H]3[C@@H]1CC[C@@H]2O[C@@H]1O[C@H](C(=O)O)[C@@H](O)[C@H](O)[C@H]1O [ESTRADIOL 17B GLUCURONIDE] | 67.9 | 69 | -12.2 | Km [8]: 11.7 µM; Vmax [9]: 10.12 pmol/min; Vmax/Km [10]: 0.86 µL/min
14 | C[C@H](CCC(=O)NCC(=O)O)[C@H]1CC[C@H]2[C@@H]3[C@H](O)C[C@@H]4C[C@H](O)CC[C@]4(C)[C@H]3C[C@H](O)[C@]12C [GLYCOCHOLIC ACID] | 66.4 | 29 | -9.8 | –
15 | N[C@@H](Cc1cc(I)c(Oc2cc(I)c(O)c(I)c2)c(I)c1)C(=O)O [LEVOTHYROXINE] | -13.1 | 11.4 | 63.7 | –
16 | CC1COc2c(N3CCN(C)CC3)c(F)cc3c(=O)c(C(=O)O)cn1c23 (configuration not stated) [OFLOXACIN] | -8.2 | 24.5 | 18.4 | –
17 | CCCc1nc(C(C)(C)O)c(C(=O)OCc2oc(=O)oc2C)n1Cc1ccc(-c2ccccc2-c2nnn[nH]2)cc1 [OLMESARTAN MEDOXOMIL] | 60.4 | – | -7.9 | –
18 | Cc1nccn1CC1CCc2c(c3ccccc3n2C)C1=O (configuration not stated) [ONDANSETRON] | 4.8 | -3.6 | -8.7 | –
19 | S=C=NCCc1ccccc1 [PHENETHYLISOTHIOCYANATE] | -16.4 | 12.3 | -32 | –
20 | CC[C@H](C)C(=O)O[C@H]1C[C@H](O)C=C2C=C[C@H](C)[C@H](CC[C@@H](O)C[C@@H](O)CC(=O)O)[C@H]21 [PRAVASTATIN] | – | 5.4 | 36.8 | INH [5]: 52.2%; IC50 [4]: 3.6 µM
21 | CSCC[C@H](NC(=O)[C@H](Cc1ccc(OS(=O)(=O)O)cc1)NC(=O)[C@@H](N)CC(=O)O)C(=O)NCC(=O)N[C@@H](Cc1c[nH]c2ccccc12)C(=O)N[C@@H](CCSC)C(=O)N[C@@H](CC(=O)O)C(=O)N[C@@H](Cc1ccccc1)C(N)=O [SINCALIDE] | 89.3 | 96.9 | 60.1 | –
22 | C[C@H](CCC(=O)NCCS(=O)(=O)O)[C@H]1CC[C@H]2[C@@H]3CC[C@@H]4C[C@H](O)CC[C@]4(C)[C@H]3C[C@H](O)[C@]12C [TAURODEOXYCHOLIC ACID] | 81.7 | 61.4 | 85.3 | –
23 | CC[C@]1(O)C[C@H]2CN(CCc3c([nH]c4ccccc34)[C@@](C(=O)OC)(c3cc4c(cc3OC)N(C=O)[C@H]3[C@@](O)(C(=O)OC)[C@H](OC(C)=O)[C@]5(CC)C=CCN6CC[C@]43[C@@H]65)C2)C1 [VINCRISTINE] | – | 59.8 | 13 | selectivity ratio [11]: 4; INH [5]: 3.9%; IC50 [4]: 44 µM; IC50 [12]: 11 µM
